# In US11696922B2, “Nanoparticle to target cancer” (Georgetown University, priority 2016, dated 2023):
# Tested on: gastrin mRNA
# Assay: Gastrin mRNA decrease by gastrin siRNA si286
# Format: cell-based
sequence,measurement,value
"GUGCUGAGGAUGAGAACUA (listed as RNA, chemistry not given here) [si286]",decrease of gastrin mRNA,90%
